The structures appear in SMILES notation.

For experiment [1], the target named is T1, C-terminal catalytic domain of MALT1 (amino acid residues 329-824) (Homo sapiens, UniProt Q9UDY8).
T1 construct: C-terminal catalytic domain of MALT1 (amino acid residues 329-824)
T1 sequence (Q9UDY8 329-824): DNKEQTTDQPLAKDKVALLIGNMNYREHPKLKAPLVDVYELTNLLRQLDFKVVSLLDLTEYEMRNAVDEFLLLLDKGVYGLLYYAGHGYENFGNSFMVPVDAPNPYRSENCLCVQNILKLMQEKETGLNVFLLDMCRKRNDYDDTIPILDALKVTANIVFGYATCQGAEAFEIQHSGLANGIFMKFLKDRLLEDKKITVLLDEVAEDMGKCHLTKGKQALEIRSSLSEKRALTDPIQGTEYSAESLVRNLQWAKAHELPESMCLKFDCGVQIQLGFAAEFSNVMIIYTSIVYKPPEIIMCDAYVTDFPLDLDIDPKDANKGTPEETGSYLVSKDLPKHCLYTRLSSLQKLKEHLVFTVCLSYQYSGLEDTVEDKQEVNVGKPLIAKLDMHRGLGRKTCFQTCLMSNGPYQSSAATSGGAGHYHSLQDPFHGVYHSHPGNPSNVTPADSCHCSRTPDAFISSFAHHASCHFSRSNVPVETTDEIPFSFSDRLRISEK
Nature of the experiment: MALT1 protease inhibitory activity (enzyme activity inhibition assay, fluorogenic substrate). The class given is biochemical. The note with it: substrate Ac-Leu-Arg-Ser-Arg-AMC 50 µM; 30°C for 2 hours; fluorescence. As for the experimental part:
To evaluate the enzyme inhibitory activity of a test substance against MALT1, an enzyme activity inhibition assay was conducted using the C-terminal catalytic domain of MALT1 (amino acid residues 329-824).
A test substance was prepared at a concentration of 10 mM in dimethyl sulfoxide (DMSO) and further diluted with DMSO to obtain final concentrations of 1000, 100, 10, 1, and 0.1 µM. The solutions were further diluted 25-fold with an assay buffer to prepare final test substance solutions. The composition of the assay buffer was 200 mM Tris/HCl HEPES (pH 7.5), 0.8 M Na citrate, 100 µM DTT, and 0.05% CHAPS.
The test substance solution was added to a 384-well black plate (#6007270, PerkinElmer) in an amount of 5 µL per well (n = 2; final concentrations of 10000, 1000, 100, 10, 1, and 0.1 nM), followed by the addition of 10 µL of MALT1 enzyme and finally 5 µL of a substrate solution (Ac-Leu-Arg-Ser-Arg-AMC, Peptide Institute, Inc.; final concentration in the reaction mixture: 50 µM), and after stirring, the mixture was allowed to react at 30°C for 2 hours. Fluorescence (excitation: 380 nm, emission: 460 nm) was detected using a microplate reader (EnVision, PerkinElmer).
Using the measurement data, non-linear regression analysis based on a 2-parameter logistic model was performed with Spotfire (PerkinElmer) to calculate IC50.

The subject of experiment [2] is HEK293/API2-MALT1/NF-κB reporter cells. Nature of the experiment: Inhibition of reporter activity in HEK293/API2-MALT1/NF-κB reporter cells. Format: cell-based. The note with it: Homo sapiens, 24 hours with test substance, One-glo luminescence. How it is done:
The API2-MALT1 fusion protein, expressed in MALT lymphoma, is known to constitutively activate the NF-κB pathway. To evaluate the inhibitory effect of the test substance on the NF-κB pathway in cells, a reporter activity inhibition test was conducted using HEK293/API2-MALT1/NF-κB reporter cells.
The test substance was prepared at a concentration of 10 mM in dimethyl sulfoxide (DMSO) and further diluted with DMSO to each of concentrations of 1000, 300, 100, and 10 µM. The solutions were further diluted 100-fold with DMEM medium containing 10% FBS to prepare test substance solutions.
HEK293/API2-MALT1/NF-κB reporter cells and 293T/CMV reporter cells (used as a negative control) were cultured in DMEM medium containing 10% FBS. Into a 384-well plate (#781080, Greiner), 6,000 cells were seeded in 30 µL per well, and after culturing for 24 hours, 3.3 µL of the adjusted test substance solution was added thereto (final concentrations: 10,000, 1,000, 100, and 10 nM). After culturing for 24 hours at 37°C in a 5% CO2 incubator, 33 µL of One-glo (Promega) was added to each well. After a 5-minute incubation at room temperature, luminescence was detected using a microplate reader (EnVision, PerkinElmer).
Using the measurement data, non-linear regression analysis was performed with the SAS system (SAS Institute Inc.) to estimate IC50.

For experiment [3], the system named is OCI-Ly3 cell lines. Nature of the experiment: Proliferation inhibition test, ABC-DLBCL cell line OCI-Ly3. Format: cell-based. The note with it: Homo sapiens; OCI-Ly3 (ABC-DLBCL, NF-κB pathway-dependent); 96 hours; Cell Counting Kit-8; read-out: Proliferation inhibitory activity against OCI-Ly3 IC50. How it is done: (§1) In ABC-DLBCL cell lines, the NF-κB pathway is constitutively activated due to mutations in the B-cell receptor pathway. To evaluate the proliferation inhibitory activity associated with the MALT1 inhibitory activity of the test substance, a proliferation inhibition test was conducted using ABC-DLBCL cell lines.
(§2) The test substance was prepared at a concentration of 10 mM in dimethyl sulfoxide (DMSO) and further diluted with DMSO to each of concentrations of 3,000, 1,000, 300, 100, 30, and 10 µM. The solutions were further diluted 100-fold with IMDM medium containing 10% FBS to prepare test substance solutions.
(§3) OCI-Ly3 cell lines (ABC-DLBCL, NF-κB pathway-dependent) were cultured in IMDM containing 10% FBS, and SU-DHL-4 cell lines (GCB-DLBCL, NF-κB pathway-independent, used as a negative control) were cultured in RPMI-1640 containing 10% FBS. Into a 96-well plate, 2,000 cells of the OCI-Ly3 cell line and 4,000 cells of the SU-DHL-4 cell line were seeded in 100 µL per well, and 11 µL of the adjusted test substance solution was added thereto (final concentrations: 10,000, 3,000, 1,000, 300, 100, 30, and 10 nM). After 96 hours of incubation at 37°C in a 5% CO2 incubator, 10 µL of Cell Counting Kit-8 (Dojindo Laboratories) was added to each well. After 4 hours of incubation at 37°C, absorbance at 450 nm was detected using a microplate reader (EnVision, PerkinElmer).
(§4) Using the measurement data, non-linear regression analysis based on a 2-parameter logistic model was performed with Spotfire (PerkinElmer) to estimate IC50 values.
Background: Formazan colour is commonly taken as a measure of viable cells.

In experiment [4] the test system is SU-DHL-4 cell lines. Nature of the experiment: Proliferation inhibition test, GCB-DLBCL cell line SU-DHL-4 (negative control line). The class given is cell-based. The note with it: Homo sapiens; SU-DHL-4 (GCB-DLBCL, NF-κB pathway-independent, negative control); 96 hours; Cell Counting Kit-8; read-out: Proliferation inhibitory activity against SU-DHL-4 IC50. How it is done:
as §1, §2, §3, §4

`C[C@@H]1C[C@H](C(=O)c2cn(C)c3nc(-n4nccn4)c(Cl)cc23)CCN1c1ncncc1Br` (racemic) [Example 33, [(2RS,4RS)-1-(5-bromopyrimidin-4-yl)-2-methylpiperidin-4-yl][5-chloro-1-methyl-6-(2H-1,2,3-triazol-2-yl)-1H-pyrrolo[2,3-b]pyridin-3-yl]methanone]: the IC50 was 10 nM in experiment [1], 640 nM in experiment [2], 790 nM in experiment [3] and above 10 µM in experiment [4].
Turning to `C[C@@H]1C[C@H](C(=O)c2cn(C)c3nc(-n4nccn4)c(Cl)cc23)CCN1c1ccc(F)cc1N` (racemic) [Example 34, [(2RS,4RS)-1-(2-amino-4-fluorophenyl)-2-methylpiperidin-4-yl][5-chloro-1-methyl-6-(2H-1,2,3-triazol-2-yl)-1H-pyrrolo[2,3-b]pyridin-3-yl]methanone], the IC50 is 13 nM in experiment [1], 200 nM in experiment [2], 520 nM in experiment [3] and above 10 µM in experiment [4].
As for `C[C@@H]1C[C@H](C(=O)c2c[nH]c3nc(C(=O)N4CCNCC4)c(Cl)cc23)CCN1c1ncc(F)cc1Cl` (racemic) [Example 35, {5-chloro-3-[(2RS,4RS)-1-(3-chloro-5-fluoropyridin-2-yl)-2-methylpiperidine-4-carbonyl]-1H-pyrrolo[2,3-b]pyridin-6-yl}(piperazin-1-yl)methanone], the IC50 came out at 37 nM in experiment [1], 390 nM in experiment [2], 630 nM in experiment [3] and 9.5 µM in experiment [4].
On the same counts, the results for `C[C@@H]1C[C@H](C(=O)c2cn(C)c3nc(S(=O)(=O)N4CCNCC4)c(Cl)cc23)CCN1c1ncc(F)cc1Cl` (racemic) [Example 36, [(2RS,4RS)-1-(3-chloro-5-fluoropyridin-2-yl)-2-methylpiperidin-4-yl][5-chloro-1-methyl-6-(piperazin-1-ylsulfonyl)-1H-pyrrolo[2,3-b]pyridin-3-yl]methanone] are 20 nM, 280 nM, 410 nM and 2.5 µM.
For `C[C@@H]1CC(C(=O)c2cn(CCO)c3nc(-n4nccn4)c(Cl)cc23)C[C@@H](C)N1c1ncc(F)cc1I` (stereo partly drawn) [Example 4, [5-chloro-1-(2-hydroxyethyl)-6-(2H-1,2,3-triazol-2-yl)-1H-pyrrolo[2,3-b]pyridin-3-yl][(2R,6R)-1-(5-fluoro-3-iodopyridin-2-yl)-2,6-dimethylpiperidin-4-yl]methanone], the values for the IC50 in experiment [2], in experiment [3] and in experiment [4] were 230 nM, 450 nM and 7.2 µM, respectively.
On to `CCn1cc(C(=O)c2cnn(-c3cncc4c(F)cccc34)c2C(F)(F)F)c2cc(Cl)c(-c3ncccn3)nc21` [Example 13, [5-chloro-1-ethyl-6-(pyrimidin-2-yl)-1H-pyrrolo[2,3-b]pyridin-3-yl][1-(8-fluoroisoquinolin-4-yl)-5-(trifluoromethyl)-1H-pyrazol-4-yl]methanone], for which the IC50 in experiment [1] was determined as 15 nM; in experiment [2], 62 nM; in experiment [3], 110 nM; in experiment [4], 2 µM.
On to `C[C@@H]1CC(C(=O)c2cn(CCCO)c3nc(-n4nccn4)c(Cl)cc23)C[C@@H](C)N1c1ncc(F)cc1I` (stereo partly drawn) [Example 15, [5-chloro-1-(3-hydroxypropyl)-6-(2H-1,2,3-triazol-2-yl)-1H-pyrrolo[2,3-b]pyridin-3-yl][(2R,6R)-1-(5-fluoro-3-iodopyridin-2-yl)-2,6-dimethylpiperidin-4-yl]methanone], for which the IC50 was 170 nM in experiment [2], 720 nM in experiment [3] and 8.4 µM in experiment [4].
In the case of `C[C@@H]1CC(C(=O)c2cn(C3CCS(=O)(=O)CC3)c3nc(-n4nccn4)c(Cl)cc23)C[C@@H](C)N1c1ncc(F)cc1I` (stereo partly drawn) [Example 19, [5-chloro-1-(1,1-dioxotetrahydro-2H-thiopyran-4-yl)-6-(2H-1,2,3-triazol-2-yl)-1H-pyrrolo[2,3-b]pyridin-3-yl][(2R,6R)-1-(5-fluoro-3-iodopyridin-2-yl)-2,6-dimethylpiperidin-4-yl]methanone], the IC50 in experiment [1] is 92 nM; in experiment [2] it was 130 nM; in experiment [3], 240 nM; in experiment [4], 2.5 µM.

Source of the values: patent publication EP4772507A1, “AZAINDOLE COMPOUND AND MEDICAL DRUG” (Nippon Shinyaku Co., Ltd., priority 2023, dated 2025).
